Experimental data published in patent US9855243B2, “Topical anti-inflammatory pharmaceutical composition with zileuton cream formulation” (Qurient Co., Ltd., priority 2013, dated 2018).

Tests used:
[1] = system: Delayed Type Hypersensitivity Reaction in mouse induced by DNFB; experiment: Mouse atopic dermatitis model, DNFB-induced ear inflammation; type: in vivo, BALB/c mouse; details: ear tissues after day 5 stimulation
Method: According to an embodiment of the present invention, the medical effect of the cream type topical pharmaceutical composition has been verified in a Delayed Type Hypersensitivity Reaction in mouse induced by DNFB. The test article was applied to a mouse's skin 3 times a day, and then the medical effect was measured. Furthermore, an excess amount of the zileuton was injected using a non-optimized test vehicle, acetone.
For this purpose, BALB/c mice were divided into […], each consisting of 10 mice. The groups were divided into a vehicle (acetone), positive control group (dexamethasone 0.05 mg/ear; Dex), and zileuton groups ([…]). And the zileuton groups were divided into cases where acetone (1 mg/ear) and the cream formulation of […] (0.2 mg/ear and 0.02 mg/ear) were used, respectively.
Then, on day 5, 20 μl of 0.3% DNFB was applied once again to cause inflammation in the ears. Then, dexamethasone and zileuton dissolved in acetone vehicle were applied to the ears at 1 hour, 6 hours, and 23 hours after the stimulation on day 5. Thicknesses of the ears were measured at 24 hours after the stimulation on day 5, and then ear tissues were taken for histopathological observation.

[2] = system: atopic dermatitis symptoms; details: clinical trials; oral administration; cited from earlier work

CC(c1cc2ccccc2s1)N(O)C(N)=O (racemic) [Zileuton, (±)-1-(1-(benzo [b]thiophen-2-yl)ethyl)-1-hydroxyurea]
Histopathological observation, anti-inflammation function [1]: excellent anti-inflammation function
Effect on atopic dermatitis symptoms [2]: alleviates atopic dermatitis symptoms
